# Measurements from US6329497A, “Sandramycin analogs” (The Scripps Research Institute, priority 1999, dated 2001).
# Entries after “also recorded” stand apart in the source; their conditions may differ.
# Assays:
# five cell lines = test: In vitro cytotoxic activity of key substructure analogs, five cell lines; format: cell-based
# calf thymus DNA = test: DNA binding constant determination for 23 (ethidium bromide displacement; sandramycin titration)
# Protocol: Calf thymus DNA (1.0×10^-5 M in base-pair) was mixed with ethidium bromide (5.0×10^-6 M) resulting in a 2:1 ratio of base-pair:ethidium in a 10 mM Tris-HCl (pH 7.4), 75 mM NaCl buffer solution (2 mL). The fluorescence was calibrated at 24° C. to 100% F and 0% F with a DNA-ethidium buffer solution and ethidium buffer solution, respectively. The premixed DNA-ethidium solution was titrated with small aliquots of 23 (20 to 40 μL of 3 mM […] in DMSO) and incubated at 24° C. for 30 min prior to each fluorescence measurement. The fluorescence was measured with 545 nm excitation and 595 nm emission with a slit width of 10 nm. The absolute binding constant from three such titrations were determined at 50% ethidium bromide displacement as measured by a drop in fluorescence to 50%. The binding constant of ethidium bromide employed to calculate the absolute binding constant with a competitive or noncompetitive binding model^39 was 4.5×10^5 M^-1 and the results are summarized in Table 4.
# A 2 mL of sample containing 400 μL of calf thymus DNA (320 μM in base-pair) with or without the presence of 40 μL of 23 (3.2×10^-3 M in DMSO) in 10 mM Tris-HCl (pH 7.4), 75 mM NaCl buffer solution was titrated with small aliquots of sandramycin (1 μL, 1.0×10^-3 M in DMSO). The quenching of fluorescence was measured 5 min after each addition of sandramycin with 360 nm excitation and 530 nm fluorescence.
# [1] = tested on: two single mutant and one double mutant of HIV-1 reverse transcriptase; conditions: cited from earlier work
# HL-60 = test: In vitro cytotoxic activity, HL-60; format: cell-based
# [2] = molecular target: HIV-1 reverse transcriptase (Human immunodeficiency virus type 1 group M subtype B, UniProt P04585); test: Inhibition of HIV-1 reverse transcriptase; format: biochemical
# Protocol: The assay was performed according to an available procedure (Goldman, M. E.; Salituro, G. S.; Bowen, J. A.; Williamson, J. M.; Zink, D. L.; Schleif, W. A.; Emini, E. A. Mol. Pharmacol. 1990, 38, 20) with slight modification. A 45 L solution of reaction buffer containing 55 mM Tris·HCl, pH 8.2, 80 mM potassium chloride, 12 mM MgCl2, 1 mM DTT, 50 M EGTA, 2.5 g/mL rA·dT, 0.5 Ci of [^3 H]TTP, 10 M TTP, 1 mg/mL BSA, and 0.01% Triton X-100 was added to a well in a filter cluster plate (Millipore MAHV N45). The reverse transcription reaction was initiated upon addition of the reverse transcriptase (1 unit; 1 unit=10 pmol of [^3 H]TMP incorporated/60 min at 37° C.). The plate was incubated at 37° C. for 90 min. The plate was then placed on ice and 200 µL of 13% trichloroacetic acid and 10 mM sodium pyrophosphate was added to each well. The plate was chilled for 2 h and the liquid vacuumed out through the filter using a Millipore manifold (Millipore MAVM 09601). The precipitate was washed with 1 M and 10 mM sodium pyrophosphate twice. The filter was punched out and placed in a scintillation vial. 4 mL of cocktail was added. Radioactivity was determined by liquid scintillation counting.
# The effects of sandramycin and its analogs on HIV-1 reverse transcriptase were determined by incubating the agents and the rA·dT containing buffer at 25° C. for 30 min prior to addition of the reverse transcriptase. Reactions containing no agents were used as controls, and those lacking the transcriptase were used as blanks.
# [3] = tested on: melanomas, carcinomas, and adenocarcinomas; test: In vitro cytotoxic activity of 4 against tumor cell lines; format: cell-based
# L1210 cell line = test: In vitro cytotoxic activity, L1210; format: cell-based
# leukemia cell lines = conditions: typical
# 5'-d(GCCGGC)2 = test: Sandramycin binding to deoxyoligonucleotides, fluorescence quenching, 5'-d(GCCGGC)2
# Protocol: (§1) Apparent absolute DNA binding constants for 1-22 and related agents including luzopeptin A were obtained by measurement of the fluorescence quenching upon titration addition of calf thymus DNA or the deoxyoligonucleotides 5'-d(GCXXGC)2 where XX=AT, TA, GC, and CG. For each agent, the characteristic fluorescence excitation and emission spectra were recorded in 10 mM Tris-HCl, 75 mM NaCl (pH 7.4) buffer, FIG. 6. For the DNA binding assays which quantitate the fluorescence quenching, excitation outside the absorbance range of DNA was employed and the most intense fluorescence emission at a longer wavelength monitored. For assay of the DNA-induced fluorescence quenching of the agents, a 2 mL buffer solution of Tris-HCl (pH 7.4) and 75 mM NaCl was employed. For titration, small aliquots of DNA were added to solutions of the agents in Tris-HCl buffer (pH 7.4).
# (§2) A pronounced downward curvature in an infinite lattice such as calf thymus DNA is recognized to arise in part from neighbor exclusion where the binding of an agent excludes the subsequent binding at nearby sites. […]
# (§3) After 5 min of stirring, an initial fluorescence reading was taken with minimum exposure to the excitation beam. […] The results of the titration were analyzed by Scatchard analysis. […]
# 5'-d(GCGCGC)2 = test: Sandramycin binding to deoxyoligonucleotides, fluorescence quenching, 5'-d(GCGCGC)2
# Protocol: as §1, §2, §3
# 5'-d(GCTAGC)2 = test: Sandramycin binding to deoxyoligonucleotides, fluorescence quenching, 5'-d(GCTAGC)2
# Protocol: as §1, §2, §3
compound,measurement,setting,value
(N-BOC-D-Ser-Pip-Gly-Sar-NMe-Val)2 (Serine Hydroxyl) Dilactone [compound 23],"cytotoxic activity, in words",five cell lines; both chromophores removed,inactive
same,fold less potent than 1,five cell lines; five cell lines,approx 10^5
same,G° of binding,calf thymus DNA,-6.0 kcal/mol
COc1ccc2nc(C(=O)N[C@@H]3COC(=O)[C@H](C(C)(C)O)N(C)C(=O)CN(C)C(=O)CNC(=O)[C@@H]4[C@@H](OC(=O)[C@@H]5C[C@H]5C)CC=NN4C(=O)[C@H](NC(=O)c4cnc5cc(OC)ccc5n4)COC(=O)[C@H](C(C)(C)O)N(C)C(=O)CN(C)C(=O)CNC(=O)[C@@H]4C(OC(=O)[C@@H]5C[C@H]5C)CC=NN4C3=O)cnc2c1 (some centres unmarked) [quinoxapeptin A],relative effectiveness against mutants versus HIV-1 reverse transcriptase,[1],1-3
"CC(C)[C@H]1C(=O)OC[C@@H](NC(=O)c2ccc3ccccc3n2)C(=O)N2CCCC[C@H]2C(=O)NCC(=O)N(C)CC(=O)N(C)[C@@H](C(C)C)C(=O)OC[C@@H](NC(=O)c2ccc3ccccc3n2)C(=O)N2CCCC[C@H]2C(=O)NCC(=O)N(C)CC(=O)N1C [compound 4, (N-(Quinol-inyl-2-carbonyl)-D-Ser-Pip-Gly-Sar-NMe-Val)2 (Serine Hydroxyl) Dilactone]","cytotoxic potency, in words",HL-60,exceptionally potent; also recorded: unusually potent
same,"HIV-1 reverse transcriptase inhibition, in words",[2],Comparable but slightly less potent inhibition
same,fold less potent than sandramycin,[2],3
same,rank order of cytotoxic potency,[3]; carcinomas and adenocarcinomas,4>luzopeptin A>sandramycin (1)
same,rank order of cytotoxic potency,[3]; melanomas,4=luzopeptin A>sandramycin (1)
same,fold more potent than sandramycin (luzopeptin A or sandramycin),"[3]; melanomas, carcinomas, adenocarcinomas","1-10,000"
same,"cytotoxic potency, fold less potent than 1",L1210 cell line,10
same,fold less potent than sandramycin (luzopeptin A or sandramycin),leukemia cell lines,4-10
"CC(C)[C@H]1C(=O)OC[C@H](NC(=O)c2nc3ccccc3cc2O)C(=O)N2CCCC[C@@H]2C(=O)NCC(=O)N(C)CC(=O)N(C)[C@H](C(C)C)C(=O)OC[C@@H](NC(=O)c2nc3ccccc3cc2O)C(=O)N2CCCC[C@@H]2C(=O)NCC(=O)N(C)CC(=O)N1C [compound 1, Sandramycin]",G° relative to 5'-d(GCATGC)2,5'-d(GCCGGC)2,0.6 kcal/mol
same,G° relative to 5'-d(GCATGC)2,5'-d(GCGCGC)2,0.3 kcal/mol
same,"HIV-1 reverse transcriptase inhibition, in words",[2],slightly more effective than luzopeptin A
same,IC50,[2]; range given for both agents,130 to 190 nM
same,G° relative to 5'-d(GCATGC)2,5'-d(GCTAGC)2,0.6 kcal/mol
